We go through three compounds from patent US7601733B2, “5(S)-(2′-hydroxyethoxy)-20(S)-camptothecin and its preparation and use for the treatment of cancer” (priority 2006, dated 2009).

A value given as a limit tells only on which side of the number the result lay.

The test system of one series is NCI-H460 xenografts. In words: NCI-H460 xenograft study in nude mice. The note with it: oral, (d×5)2 schedule, deaths/animals. The series is classed as in vivo. As to the method: Protocol of Comparison Study of 5(RS)-(2′-hydroxyethoxy)-20(S)-camptothecin and 5(S)-(2′-hydroxyethoxy)-20(S)-camptothecin Against NCl-H460 Xenograft in Nude Mice:
Ti is the mean tumor volume.
Percentage tumor growth inhibition was calculated using the formula: Percentage Tumor growth inhibition=100−% T/C.
The other parameter observed was mortality.

Series [1] deals with Human bone marrow mononuclear cells. The experiment in a line: Human bone marrow assay (CFU-GM colony inhibition). The class given is cell-based. The note with it: relative to 5(R) diastereoisomer. As to the method:
Protocol for Human Bone Marrow Assay:
Methocult™ GF (Cat No: H4534, Poietics, Biowhittakar, USA) medium comprising Methycellulose in Iscove's MDM, Fetal bovine serum, Bovine serum albumin, 2-Mercaptoethanol, L-Glutamine, rhStem cell factor, rhGM-CSF and rhIL-3 was used for the assay. Human bone marrow mononuclear cells (Cat No. 2M-125C, Poietics, Biowhittakar, USA) were mixed with Methocult GF and the cell density was adjusted to 3×10^5 cells/ml. From this preparation, 500 μL aliquots were made and 2.5 μL of 20× drug solution or vehicle was added to each aliquot and mixed thoroughly. 100 μL of clonogenic medium was plated into each well and the plates were allowed to gel at 4° C. for 15 minutes. Plates were incubated at 37° C. in a fully humidified atmosphere of 5% CO2 in an incubator for 14 days. CFU-GM colonies were counted under an inverted microscope as aggregates of 50 cells or more. The percentage colony inhibition was calculated using the following formula: 100−[(number of colonies in drug treated wells/Number of colonies in control wells)×100].
The in vitro potency of the two diastereomers against cancer cell lines had been compared with their in vitro toxicity in healthy cells.

In series [2] the test system is Saos-2 cells over expressing functional BCRP#4. The class given is cell-based, human. As to the method: (§1) Protocol for Breast Cancer Resistance Protein (BCRP) Assay:
(§2) The anticancer effect of 5(S)-(2′-hydroxyethoxy)-20(S)-camptothecin & 5(R)-(2′-hydroxyethoxy)-20(S)-camptothecin were evaluated versus the racemate 5(RS)-(2′-hydroxyethoxy)-20(S)-camptothecin on Saos-2 cells over expressing functional BCRP#4 and non-functional BCRP mut#10. The human osteosarcoma cell line, Saos-2, was obtained from ATCC (American Type Culture Collection, Cat#HTB-85, Manassas, Va.) and were maintained in DMEM containing 10% fetal bovine serum, 1% penicillin/streptomycin, and 2 mM glutamine. Saos-2 cells were transfected with either BCRP#4 to over express functional BCRP or BCRP#10 to over express non-functional BCRP transporter. The cells were plated in 96-well plates at a density of 1000 cells per each well in a 0.1 ml of medium and allowed to attach overnight. The next morning the medium was gently aspirated and serial dilutions of the compounds to be tested were added. The cells were incubated at 37° C. in a 5% CO2 incubator. […] The amount of the fluorescent dye produced was measured on a Cytofluor® 2300(Millipore, Bedford, Mass.) using an excitation wavelength of 530 nm and emission wavelength of 590 nm. The relative fluorescence units obtained were used to calculate the percentage growth at each concentration in relation to the untreated control values. […]

Series [3] concerns Saos-2 cells over expressing non-functional BCRP mut#10. The class given is cell-based, human. As for the experimental part: as §1, §2
For series [4] the following is noted: cited from earlier work.

Turning to `CC[C@@]1(O)C(=O)OCc2c1cc1n(c2=O)C(OCCO)c2cc3ccccc3nc2-1` (mixture of isomers) [4(S)-Ethyl-4-hydroxy-12(RS)-(2-hydroxyethoxy)-1,12-dihydro-4H-2-oxa-6,12a-diaza-dibenzo[b,h]fluorine-3,13-dione, reference compound], the Mortality in the series on NCI-H460 xenografts (2 mg/kg) and in the series with NCI-H460 xenografts (4 mg/kg) was 0/5 throughout.

On to `CC[C@@]1(O)C(=O)OCc2c1cc1n(c2=O)[C@@H](OCCO)c2cc3ccccc3nc2-1` [4-(S)-Ethyl-4-hydroxy-12(S)-(2-hydroxyethoxy)-1,12-dihydro-4H-2-oxa-6,12a-diazadibenzo[b,h] fluorene-3,13-dione], for which the Mortality in the series on NCI-H460 xenografts (2 mg/kg) and in the series on NCI-H460 xenografts (4 mg/kg) was 0/5 throughout. Moreover, the “safety margin (GI90/GI50) compared with that of the 5(R) diastereoisomer” value in series [1] is reported as “over twice”. Further, the “fold more cytotoxic than 5(R)-(2′-hydroxyethoxy)-20(S)-camptothecin” value was more than 2.5 fold in series [2] and approximately 6 fold in series [3].

On to `CC[C@@]1(O)C(=O)OCc2c1cc1n(c2=O)Cc2cc3ccccc3nc2-1` [camptothecin, Camptothecin], for which, in series [4], the water solubility entry is on record as “poorly water soluble”.
